The values below come from patent publication US6110934A, “Substituted benzamide derivatives and their use as anticonvulsants” (SmithKline Beecham p.l.c., priority 1996, dated 2000).

The experiment concerns the target novel receptor obtainable from rat forebrain tissue. The experiment can be described thus: Radioligand binding assay, displacement of [3H]-Compound A. The following applies: competition with [3H]-Compound A (usually 20 nM), room temperature, 1 hour. As to the method: The affinity of test compounds to the novel receptor site is assessed as follows. Whole forebrain tissue is obtained from rats. The tissue is first homogenised in buffer (usually 50 mM Tris/HCl, pH 7.4). The homogenised tissue is washed by centrifugation and resuspension in the same buffer, then stored at -70° C. until used. […] The final concentration of [3H]-Compound A in the mixture is usually 20 nM. The mixture is incubated at room temperature for 1 hour. [3H]-Compound A bound to the tissue is then separated from unbound [3H]-Compound A by filtration through Watman GF/B glass fibre filters. The filters are then washed rapidly with ice-cold buffer. The amount of radioactivity bound to the tissue trapped on the filters is measured by addition of liquid scintillation cocktail to the filters followed by counting in a liquid scintillation counter. In order to determine the amount of "specific" binding of [3H]-Compound A, parallel assays are carried out as above in which [3H]-Compound A and tissue are incubated together in the presence of unlabelled Compound A (usually 3 μM). The amount of binding of [3H]-Compound A remaining in the presence of this unlabelled compound is defined as "non-specific" binding. This amount is subtracted from the total amount of [3H]-Compound A binding (i.e. that present in the absence of unlabelled compound) to obtain the amount of "specific" binding of [3H]-Compound A to the novel site. The affinity of the binding of test compounds to the novel site can be estimated by incubating together [3H]-Compound A and tissue in the presence of a range of concentrations of the compound to be tested. The decrease in the level of specific [3H]-Compound A binding as a result of competition by increasing concentrations of the compound under test is plotted graphically, and non-linear regression analysis of the resulthant curve is used to provide an estimate of compound affinity in terms of pKi value.
For orientation: In a radioligand displacement assay an active substance lowers the binding of a labelled ligand.

Where a name gives a salt, the structure may show the parent alone.

As to `CCc1cc(OC)c(C(=O)Nc2cccc3c2CCN(C)C3)cc1C(F)(F)F.Cl` [Example 68, N-(2-Methyl-1,2,3,4-tetrahydroisoquinolin-5-yl)-4-ethyl-2-methoxy-5-trifluoromethylbenzamide, Hydrochloride], the pKi result was “greater than 7”. As to `COc1cc(OC)c(C(=O)Nc2cccc3c2CCNC3)cc1Cl` [Example 19, N-(1,2,3,4-Tetrahydroisoquinolin-5-yl)-5-chloro-2,4-dimethoxybenzamide], the pKi result is listed as “greater than 7”.

As for `COc1cc(OC)c(C(=O)Nc2cccc3c2CCN(C)C3)cc1Br` [Example 17, N-(2-Methyl-1,2,3,4-tetrahydroisoquinolin-5-yl)-5-bromo-2,4-dimethoxybenzamide], the pKi result is “greater than 7”. For `COc1cc(OC(C)C)c(C(C)=O)cc1C(=O)Nc1cccc2c1CCN(C)C2.Cl` [Example 70, N-(2-Methyl-1,2,3,4-tetrahydroisoquinolin-5-yl)-2-methoxy-4-iso-propyloxy-5-acetyl-benzamide, Hydrochloride], the pKi result is recorded as “greater than 7”. Regarding `COc1cc(N)c(I)cc1C(=O)Nc1cccc2c1CCN(C)C2` [Example 13, N-(2-Methyl-1,2,3,4-tetrahydroisoquinolin-5-yl)-4-amino-5-iodo-2-methoxybenzamide], the pKi entry was “greater than 7”. To `COc1cc(OC)c(C(=O)Nc2cccc3c2CCN(C)C3)cc1Cl` [Example 16, N-(2-Methyl-1,2;3,4-tetrahydroisoquinolin-5-yl)-5-chloro-2,4-dimethoxybenzamide] belongs “greater than 7”; to `COc1cc(C)c(Cl)cc1C(=O)Nc1cccc2c1CCN(C)C2` [Example 20, N-(2-Methyl-1,2,3,4-tetrahydroisoquinolin-5-yl)-5-chloro-2-methoxy-4-methylbenzamide], “greater than 7”; to `COc1ccc(C(=O)C(C)C)cc1C(=O)Nc1cccc2c1CCN(C)C2` [Example 49, N-(2-Methyl-1,2,3,4-tetrahydroisoquinolin-5-yl) 5-iso-butyroyl-2-methoxy-benzamide Hydrochloride], “greater than 7”. To `COc1cc(C)c(Br)cc1C(=O)Nc1cccc2c1CCN(C)C2` [Example 25, N-(2-Methyl-1,2,3,4-tetrahydroisoquinolin-5-yl)-5-bromo-2-methoxy-4-methylbenzamide] belongs “greater than 7”; to `CCOc1cc(OC)c(C(=O)Nc2cccc3c2CCN(C)C3)cc1Cl` [Example 23, N-(2-Methyl-1,2,3,4-tetrahydroisoquinolin-5-yl)-5-chloro-4-ethoxy-2-methoxybenzamide], “greater than 7”. For the molecule `COc1cc(OC)c(C(=O)Nc2ccc3c(c2)CN(C)CC3)cc1Br.Cl` [Example 52, N-(2-Methyl-1,2,3,4-tetrahydroisoquinolin-7-yl)-5-bromo-2,4-dimethoxybenzamide, Hydrochloride Salt], the pKi result is “greater than 7”.

For `COc1ccc(C(=O)C(C)(C)C)cc1C(=O)Nc1cccc2c1CCN(C)C2.Cl` [Example 50, N-(2-Methyl-1,2,3,4-tetrahydroisoquinolin-5-yl)-5-pivaloyl-2-methoxybenzamide, Hydrochloride], the pKi entry is “greater than 7”. With `COc1cc(N)c(Cl)cc1C(=O)Nc1cccc2c1CCN(C)C2.Cl` [Example 1, N-(2-Methyl-1,2,3,4-tetrahydroisoquinolin-5-yl)-4-amino-5-chloro-2-methoxy-benzamide Hydrochloride], the pKi result is “greater than 7”. With `CCc1cc(OC)c(C(=O)Nc2cccc3c2CCN(C)C3)cc1Cl` [Example 37, N-(2-Methyl-1,2,3,4-tetrahydroisoquinolin-5-yl)-4-ethyl-2-methoxy-5-chloro Benzamide, Hydrochloride] the entry was “greater than 7”; with `COc1cc(C(C)(C)C)ccc1C(=O)Nc1cccc2c1CCN(C)C2.Cl` [Example 35, N-(2-Methyl-1,2,3,4-tetrahydroisoquinolin-5-yl)-4-tert-butyl-2-methoxybenzamide Hydrochloride], “greater than 7”. With `COc1cc(OC(C)C)c(Br)cc1C(=O)Nc1cccc2c1CCN(C)C2.Cl` [Example 45, N-(2-Methyl-1,2,3,4-tetrahydroisoquinolin-5-yl)-5-bromo-4-iso-propoxy-2-methoxybenzamide, Hydrochloride] the entry was “greater than 7”. With `COc1cc(N)c(Br)cc1C(=O)Nc1cccc2c1CCN(C)C2` [Example 7, N-(2-Methyl-1,2,3,4-tetrahydroisoquinolin-5-yl)-4-amino-5-bromo-2-methoxybenzamide] the entry was “greater than 7”.

As for `COc1cc(C(C)C)c(C(F)(F)F)cc1C(=O)Nc1cccc2c1CCN(C)C2.Cl` [Example 46, N-(2-Methyl-1,2,3,4-tetrahydroisoquinolin-5-yl)-4-iso-propyl-5-trifluoromethyl-2-methoxybenzamide, Hydrochloride], the pKi result is listed as “greater than 7”.

For `CCCOc1cc(N)c(Cl)cc1C(=O)Nc1cccc2c1CCN(C)C2` [Example 10, N-(2-Methyl-1,2,3,4-tetrahydroisoquinolin-5-yl)-4-amino-5-chloro-2-propoxy-benzamide], the pKi result is “greater than 7”. As to `COc1cc(OC(C)C)c(Cl)cc1C(=O)Nc1cccc2c1CCN(C)C2.Cl` [Example 71, N-(2-Methyl-1,2,3,4-tetrahydroisoquinolin-5-yl)-5-chloro-2-methoxy-4-iso-propoxybenzamide, Hydrochloride], the pKi result is given as “greater than 7”.
